Structures are written as SMILES. Read-outs that look alike come from different tables or passages of the source.

The test system of data set [1] is Myzus persicae. The data set is described as follows: Myzus persicae - spray test (bell pepper plants). The class given is in vivo. Particulars: application rate 4 ppm, after 6 days. On the procedure:
Myzus persicae—Spray Test Solvent: 7 parts by weight of dimethylformamide Emulsifier: alkylaryl polyglycol ether […] […] If the addition of ammonium salts or/and penetrants is required, these are each added in a concentration of 1000 ppm to the preparation solution. Bell pepper plants (Capsicum annuum) severely infested with the green peach aphid (Myzus persicae) are treated by spraying with the active compound preparation in the desired concentration.

A short description of data set [2]: log P by HPLC on reversed-phase C18 columns (OECD Guideline 117); method [a] acidic pH 2.7, method [b] neutral pH 7.8. The class given is physicochemical. Particulars: for chromatographic logP: reversed-phase C18 HPLC column.
The next data set has as its system Phaedon cochleariae. In words: Phaedon cochleariae - spray test. Type of data set: in vivo. Particulars: application rate 500 g/ha, Chinese cabbage leaf discs, after 7 days. The source says:
Phaedon cochleariae—Spray Test
(§1) Emulsifier: alkylaryl polyglycol ether

In another data set the test system is Spodoptera frugiperda. Particulars: application rate 500 g/ha, maize leaf discs, after 7 days. The procedure: Spodoptera frugiperda—Spray Test
Solvent: 78.0 parts by weight of acetone • • 1.5 parts by weight of dimethylformamide
as §1
(§2) To produce further test concentrations, the preparation is diluted with emulsifier-containing water.
After 7 days, the efficacy in % is determined 100% means that all the caterpillars have been killed; 0% means that no caterpillars have been killed.

The next data set deals with Tetranychus urticae. In words: Tetranychus urticae - spray test, OP-resistant. Type of data set: in vivo. Particulars: application rate 500 g/ha, bean leaf discs, after 6 days. On the procedure:
Tetranychus urticae—Spray Test, OP-Resistant
as §1
After 6 days, the efficacy in % is determined. 100% means that all the spider mites have been killed; 0% means that none of the spider mites have been killed.

In data set [3] the test system is Myzus persicae. In words: Myzus persicae - spray test (Chinese cabbage leaf discs). Particulars: application rate 500 g/ha, after 6 days; for pest or weed control at 500 g/ha: Myzus persicae, foliar, 144 h, read-out: efficacy (aphids killed). Type of data set: in vivo. The procedure:
Myzus persicae—Spray Test
Solvent: 78 parts by weight of acetone • • 1.5 parts by weight of dimethylformamide
as §1, §2
After 6 days, the efficacy in % is determined 100% means that all the aphids have been killed; 0% means that none of the aphids have been killed.

For another data set, the system named is Boophilus microplus. The data set is described as follows: Boophilus microplus - injection test. The class given is in vivo. Particulars: application rate 20 μg/animal, injection into engorged adult female cattle ticks, assessed after 7 days. The procedure: Boophilus microplus—Injection Test
Solvent: dimethyl sulphoxide
To produce a suitable preparation of active compound, 10 mg of active compound are mixed with 0.5 ml of solvent and the concentrate is diluted with solvent to the desired concentration.
1 μl of the active compound solution is injected into the abdomen of 5 engorged adult female cattle ticks (Boophilus microplus). The animals are transferred into dishes and kept in a climate-controlled room.
Efficacy is assessed after 7 days by laying of fertile eggs. Eggs which are not visibly fertile are stored in a climate-controlled cabinet until the larvae hatch after about 42 days. An efficacy of 100% means that none of the ticks has laid any fertile eggs; 0% means that all the eggs are fertile.

Another data set concerns Meloidogyne incognita. In words: Meloidogyne incognita test. Particulars: application rate 20 ppm, lettuce, after 14 days. Type of data set: in vivo. On the procedure:
Meloidogyne Incognita Test
Solvent: 125.0 parts by weight of acetone
Vessels are filled with sand, active compound solution, an egg/larvae suspension of the southern root-knot nematode (Meloidogyne incognita) and lettuce seeds. The lettuce seeds germinate and the plants develop. The galls develop on the roots.
After 14 days, the nematicidal efficacy in % is determined by the formation of galls. 100% means that no galls were found; 0% means that the number of galls on the treated plants corresponds to the untreated control.

Setting [4] is: HPLC reversed-phase C18, method [a] acidic pH 2.7, read-out: logP[a].
Where [5] appears, read: HPLC reversed-phase C18, method [b] neutral pH 7.8, read-out: logP[b].
Where [6] appears, read: HPLC reversed-phase C18, method [a] acidic pH 2.7.
Setting [7] is: HPLC reversed-phase C18, method [b] neutral pH 7.8.

Take `COc1cccc(-n2cnc3nc(-c4cccnc4)sc3c2=O)c1` [Compound 10, 6-(3-Methoxyphenyl)-2-(pyridin-3-yl)[1,3]thiazolo[4,5-d]pyrimidin-7(6H)-one]: the “efficacy (kill of aphids)” value in the data set on Myzus persicae [1] turned out to be 96%. Besides, the chromatographic logP in data set [2] (setting [4]) is 1.73; in data set [2] (setting [5]), 1.76.

Consider `Cc1ccc(-n2cnc3nc(-c4cccnc4)sc3c2=O)cc1` [Compound 11], for which the “efficacy (beetle larvae killed)” value in the data set on Phaedon cochleariae came out at 100%. The “efficacy (caterpillars killed)” value with Spodoptera frugiperda stood at 100%. In addition, the “efficacy (spider mites killed)” value with Tetranychus urticae amounted to 90%. For the same molecule, the “logP[a]” value in data set [2] (setting [6]) amounted to 1.92. The “logP[b]” value in data set [2] (setting [7]) was 1.96.

`Cn1ccc(Cn2cnc3nc(-c4cccnc4)sc3c2=O)n1` [Compound 37]: in the data set on Myzus persicae [3], the “efficacy (aphids killed)” value amounted to 90%. Moreover, the “efficacy (beetle larvae killed)” value in the data set with Phaedon cochleariae came out at 100%. In addition, the “efficacy (caterpillars killed)” value in the data set with Spodoptera frugiperda amounted to 100%. Besides, in data set [2] (setting [6]), the “logP[a]” value turned out to be 0.97. Also, the “logP[b]” value in data set [2] (setting [7]) is reported as 1.08.

Regarding `O=c1c2sc(-c3cccnc3)nc2ncn1-c1cc(SCC2CC2)ccc1F` [Compound 44], the “efficacy (kill of aphids)” value in the data set on Myzus persicae [1] was 100%. The “logP[a]” value in data set [2] (setting [6]) is listed as 2.91. Moreover, in data set [2] (setting [7]), the “logP[b]” value turned out to be 3.00.

On to `Cc1cc(F)c(-n2c(C)nc3nc(-c4cccnc4)sc3c2=O)cc1[S+]([O-])CC(F)(F)F` (stereo not shown) [Compound 57, 6-{2-Fluoro-4-methyl-5-[(2,2,2-trifluoroethyl)sulphinyl]phenyl}-5-methyl-2-(pyridin-3-yl)[1,3]thiazolo[4,5-d]pyrimidin-7(6H)-one], for which the “efficacy (laying of fertile eggs)” value in the data set on Boophilus microplus turned out to be 100%. In addition, the pest or weed control at 500 g/ha with Myzus persicae [3] was 100%. Also, the “efficacy (spider mites killed)” value in the data set with Tetranychus urticae is recorded as 90%. Besides, the chromatographic logP in data set [2] (setting [4]) was found to be 2.25; in data set [2] (setting [5]), 2.05.

As to `O=c1c2sc(-c3cccnc3)nc2ncn1-c1ccc([S+]([O-])C(F)(F)F)cc1` (stereo not shown) [Compound 63, 2-(Pyridin-3-yl)-6-{4-[(trifluoromethyl)sulphinyl]phenyl}[1,3]thiazolo[4,5-d]pyrimidin-7(6H)-one], the “nematicidal efficacy (formation of galls)” value with Meloidogyne incognita came out at 90%. Further, in the data set on Myzus persicae [3], the pest or weed control at 500 g/ha came out at 90%. Besides, the figures for the chromatographic logP in data set [2] (setting [4]) and in data set [2] (setting [5]) were 2.03 and 1.99, respectively.

These data come from patent publication US10294243B2, “Bicyclic compounds as pesticides” (BAYER CROPSCIENCE AKTIENGESELLSCHAFT, priority 2014, dated 2019).
